Test results reported in patent US12410124B2 (priority 2019, dated 2025).

Experiments:
Assay type in all cases: in vivo
substantia nigra CD11b = experiment: Number of substantia nigra microglial cells with CD11b positive expression in MPTP Parkinson's disease model mouse (immunohistochemistry); settings: substantia nigra, MPTP Parkinson's disease model mouse, immunohistochemistry
substantia nigra pp38 = experiment: Substantia nigra pp38 protein expression in MPTP Parkinson's disease model mouse (immunofluorescence); settings: percentage of mean intensity of blank control group, gavage 21 days after MPTP modeling
hippocampus GFAP = experiment: Number of hippocampus astrocytes with GFAP positive expression in MPTP Parkinson's disease model mouse (immunohistochemistry); settings: hippocampus, MPTP Parkinson's disease model mouse, immunohistochemistry
midbrain TH = experiment: Midbrain TH expression in MPTP Parkinson's disease model mouse (western-blotting); settings: midbrain total protein, GAPDH internal reference, gavage 21 days after MPTP modeling
midbrain p-α-s = experiment: Midbrain p-α-s protein expression in MPTP Parkinson's disease model mouse (western-blotting); settings: midbrain total protein, GAPDH internal reference, gavage 21 consecutive days after MPTP modeling
hippocampus CD11b = experiment: Number of hippocampus microglial cells with CD11b positive expression in MPTP Parkinson's disease model mouse (immunohistochemistry); settings: hippocampus, MPTP Parkinson's disease model mouse, immunohistochemistry

**Q.** Which results are given for `CNC(=O)Oc1ccc(/C=C/S(=O)(=O)CC(Cl)c2ccc(Cl)c([N+](=O)[O-])c2)cc1O` (stereo not drawn) [Compound E2-2, (E)-4-{2-[2-chloro-2-(4-chloro-3-nitrophenyl)ethylsulfonyl]ethenyl}-2-hydroxyphenyl-N-methylcarbamate]?
**A.** Positive cell number (microglial cells with CD11b positive expression) (substantia nigra CD11b): 40 ± 5; Expression (Immunofluorescence intensity %) (substantia nigra pp38): 96.01 ± 10.37%; Positive cell number (astrocytes with GFAP positive expression) (hippocampus GFAP): 50 ± 5; Expression (TH/GAPDH) (midbrain TH): 0.97 ± 0.03; Expression (p-α-s/GAPDH) (midbrain p-α-s): 0.45 ± 0.07; Positive cell number (microglial cells with CD11b positive expression) (hippocampus CD11b): 15 ± 2
